“Also recorded” adds a separate entry of the source.
What was measured:
PSAM-GlyR = conditions: Magnus et al. 2011; cited from earlier work
[1] = molecular target: T1, PSAM-GlyR in CCK^+ dorsal horn neurons (Homo sapiens, UniProt P23415+P36544, L141F); assay: Persistent pain models in mice expressing PSAM-GlyR in CCK^+ dorsal horn neurons; assay type: in vivo, mouse; conditions: 30 mg/kg i.p., PSAM-GlyR in CCK^+ neurons
T1 construct: plasmid from Addgene (Sternson); host or cells: mouse dorsal horn neurons transduced with Cre-dependent AAV2/8 (Tlx3^Cre, CCK^Cre or Calr^Cre mice)
Text: (§1) Methods. Animals: All animals were kept on a standard 12:12 light/dark cycle in micro-isolator caging racks (Allentown Caging) with food and water provided ad libitum. Mouse strains obtained from Jackson Laboratories include C57Bl/6J (JAX #000664), Calr^Cre (JAX #010774) and CCK^Cre (JAX #012706). Adeno-associated viruses (AAV2/8) used in these experiments: hSyn-Flex-rev-PSAM^L141F-GlyR-IRES-eGFP (7^12 vg/ml) and hSyn-Flex-rev-PSAM^L141F,Y115F-GlyR-IRES-eGFP (1.7^13 vg/ml) were custom made by UNC Vector core based on plasmid material developed by Scott Sternson and provided by Addgene. The hSyn-Flex-rev-PSAM^L141F-GlyR-IRES-eGFP (7^12 vg/ml) was used in all experiments except FIG. 8 (e,f). For these experiments, hSyn-Flex-rev-PSAM^L141F,Y115F-GlyR-IRES-eGFP (1.7^13 vg/ml) was used. Methods including: intra-spinal virus injections, paw withdrawal threshold to von Frey filaments, to cotton swab, Hargreaves, pinprick and acute pain behaviors licking, guarding, flicking are all as previously described (Peirs, C. et al. Dorsal Horn Circuits for Persistent Mechanical Pain. Neuron 87, 797-812 (2015); Seal, R. P. et al. Injury-induced mechanical hypersensitivity requires C-low threshold mechanoreceptors. Nature 462, 651-655, (2009)); For paw withdrawal threshold to pressure: mice were lightly restrained by hand such that their rear legs were allowed to freely hang. Using a Pressure Application Measurement device (Ugo Basile) the hind paw was grasped between the experimenter's forefinger and thumb (with pressure transducer on the thumb), and force was slowly applied to the paw until the mouse struggled or flicked its limb (paw withdrawal threshold, PWT). The final force in grams was recorded. Each mouse was tested on the left and right paw for three trials with a ten-minute inter-trial interval between applications, and the three results averaged for each paw. Injury Models including incision, complete Freund's adjuvant, spared nerve injury tibial and sural models, carrageenan, methylglyoxal and multi-dose streptozotocin are as previously described (Peirs, C. et al. Dorsal Horn Circuits for Persistent Mechanical Pain. Neuron 87, 797-812 (2015); Seal, R. P. et al. Injury-induced mechanical hypersensitivity requires C-low threshold mechanoreceptors. Nature 462, 651-655, (2009); Decosterd, I. and Woolf, C. J. Spared nerve injury: an animal model of persistent peripheral neuropathic pain. Pain 87, 149-158 (2000); Bierhaus, A. et al. Methylglyoxal modification of Nav1.8 facilitates nociceptive neuron firing and causes hyperalgesia in diabetic neuropathy. Nat Med 18, 926-933 (2012); Cavanaugh, D. J. et al. Distinct subsets of unmyelinated primary sensory fibers mediate behavioral responses to noxious thermal and mechanical stimuli. Proc Natl Acad Sci USA 106, 9075-9080, (2009)). Chemogenetic Activation of PSAM-GlyR Receptor: Behavior thresholds were performed as described above in AAV8-hSyn-DIO-PSAM-GlyR-IRES-GFP injected mice. PSEM^89S at 30 mg/kg was injected intraperitoneally 15 minutes prior to testing. Immunohistochemistry was performed as previously described (Peirs, C. et al. Dorsal Horn Circuits for Persistent Mechanical Pain. Neuron 87, 797-812 (2015); Seal, R. P. et al. Injury-induced mechanical hypersensitivity requires C-low threshold mechanoreceptors. Nature 462, 651-655 (2009)). α-bungarotoxin conjugated to Alexa-647 (1:1000; ThermoFisher B35450), α-bungarotoxin conjugated to Alexa-488 (1:1000; ThermoFisher B13422). Imaging: Spinal cord sections were imaged with a confocal laser-scanning microscope (Nikon A1R) and Nikon Elements software using 405-, 488-, 561- and 640 nm excitation laser light. In order to suppress emission crosstalk, the microscope was configured to perform all scanning in sequential mode. Z-series were scanned at 20× magnification with an oil immersion lens and a z-step of 5.0 μm. Quantification and Statistical Analysis: all data are reported as mean±SEM. For acute behaviors, a two-tailed Student's t-test was used. […]

[2] = molecular target: T2, PSAM-GlyR in CCK^+ dorsal horn neurons (Homo sapiens, UniProt P23415+P36544, L141F/Y115F); assay: as above; assay type: in vivo, mouse; conditions: PSAM^L141F,Y115F-GlyR virus, CCK^+ neurons
T2 construct: plasmid from Addgene (Sternson); host or cells: mouse dorsal horn neurons transduced with Cre-dependent AAV2/8 (Tlx3^Cre, CCK^Cre or Calr^Cre mice)
Text: as §1

[3] = molecular target: T3, PSAM-GlyR in calretinin neurons in the dorsal horn lamina II (Homo sapiens, UniProt P23415+P36544, L141F); assay: Inflammatory pain models in Calr^Cre mice expressing PSAM-GlyR in the dorsal horn; assay type: in vivo, mouse; conditions: 30 mg/kg i.p.
T3 construct: plasmid from Addgene (Sternson); host or cells: mouse dorsal horn neurons transduced with Cre-dependent AAV2/8 (Tlx3^Cre, CCK^Cre or Calr^Cre mice)
Text: as §1, with “Nat Med 18, 926-933 (2012); Cavanaugh, D. J. et al. Distinct subsets of unmyelinated primary sensory fibers mediate behavioral responses to noxious thermal and mechanical stimuli. Proc Natl Acad Sci USA 106, 9075-9080, (2009)). Chemogenetic Activation of PSAM-GlyR Receptor: Behavior thresholds were performed as described above in AAV8-hSyn-DIO-PSAM-GlyR-IRES-GFP injected mice. PSEM^89S at 30 mg/kg was injected intraperitoneally 15 minutes prior to testing. Immunohistochemistry was performed as previously described (Peirs, C. et al. Dorsal Horn Circuits for Persistent Mechanical Pain. Neuron 87, 797-812 (2015); Seal, R. P. et al. Injury-induced mechanical hypersensitivity requires C-low threshold mechanoreceptors. Nature 462, 651-655 (2009)). α-bungarotoxin conjugated to Alexa-647 (1:1000; ThermoFisher B35450), α-bungarotoxin conjugated to Alexa-488 (1:1000; ThermoFisher B13422). Imaging: Spinal cord sections were imaged with a confocal laser-scanning microscope (Nikon A1R) and Nikon Elements software using 405-, 488-, 561- and 640 nm excitation laser light. In order to suppress emission crosstalk, the microscope was configured to perform all scanning in sequential mode. Z-series were scanned at 20× magnification with an oil immersion lens and a z-step of 5.0 μm.” left out, “mean±SEM.” for “mean±SEM. For acute behaviors, a two-tailed Student's t-test was used.”

T1 sequence (P36544+P23415 fused P36544:L141F): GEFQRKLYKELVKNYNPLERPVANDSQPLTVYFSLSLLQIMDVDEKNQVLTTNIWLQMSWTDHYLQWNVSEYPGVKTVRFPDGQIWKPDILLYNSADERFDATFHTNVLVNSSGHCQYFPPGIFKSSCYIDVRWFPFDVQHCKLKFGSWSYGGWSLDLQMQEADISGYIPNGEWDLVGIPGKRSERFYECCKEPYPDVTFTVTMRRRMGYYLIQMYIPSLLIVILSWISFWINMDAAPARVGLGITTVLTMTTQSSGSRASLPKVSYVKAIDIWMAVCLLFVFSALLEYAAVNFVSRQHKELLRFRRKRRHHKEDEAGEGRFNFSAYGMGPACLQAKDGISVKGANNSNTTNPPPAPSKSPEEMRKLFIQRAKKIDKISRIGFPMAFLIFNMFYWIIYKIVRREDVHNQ
T3 sequence (P36544+P23415 fused P36544:L141F): as above
T2 sequence (P36544+P23415 fused P36544:Y115F/P36544:L141F): as the sequence (P36544+P23415 fused P36544:L141F) above, with Y93F counted along it

In the case of `COc1ccc(OC)c(C(=O)NC2CN3CCC2CC3)c1` (stereo not shown) [PSEM^89S], the “binding to the mutated receptor binding domain” value (PSAM-GlyR) is listed as “high affinity”, the “dynamic allodynia, carrageenan pain model” value ([1]; p=0.0001) is listed as “significantly reversed” and the “dynamic allodynia, sural-SNI model” value ([1]; p=0.0001) is listed as “significantly reversed”. For the same compound, the “heat hypersensitivity, carrageenan pain model” value ([1]; p=0.0002) was “significantly reversed”, the “punctate allodynia, sural-SNI model” value ([1]; p=0.0003) was “significantly reversed” and the “dynamic allodynia, CFA model” value ([1]; p=0.0016) was “markedly reversed; also recorded: significantly reversed”. The “punctate allodynia, carrageenan pain model” value ([1]; p=0.0017) was “significantly reversed”, the “punctate allodynia, CFA model” value ([1]; p=0.0034) was “markedly reversed; also recorded: significantly reversed” and the “punctate allodynia, tibial-SNI model” value ([1]; p=0.0054) was “markedly reversed”. The “heat hypersensitivity, CFA model” value ([1]; p=0.0368) was “markedly reversed; also recorded: significantly reversed”, the “heat hypersensitivity induced by multi-dose STZ” value ([2]; p=0.010) was “reversed” and the “heat hypersensitivity induced by MG (methylglyoxal)” value ([2]; p=0.0272) was “reversed”. The “mechanical allodynia (punctate), carrageenan model” value ([3]; 24 hours after carrageenan, p=0.0074) was “reverses; also recorded: significantly reversed”, the “mechanical allodynia (punctate), CFA model” value ([3]; 5 days after CFA, ipsilateral hindpaw, p=0.0026) was “reverses; also recorded: complete reversal” and the “dynamic mechanical allodynia, incision model” value ([3]; p=0.0001) was “reverses”. The “punctate mechanical allodynia, incision model” value ([3]; p=0.0028) was “reverses”.

Source: patent publication US11713470B2, “Targeted gene therapies for pain and other neuro-related disorders” (University of Pittsburgh—Of the Commonwealth System of …, priority 2017, dated 2023)
